One assay has as its system BPH1. Briefly: Crystal violet proliferation assay, BPH1. It counts as cell-based. To be noted: BPH1, non-tumorigenic, 72 h treatment, mean; for IC50: Homo sapiens, BPH-1. The procedure:
(§1) Cells were seeded at a density of 2 × 10^4 in 96-well plates and left to adhere overnight before treatment with the inhibitors. After 72 h of treatment, cells were fixed in 2% paraformaldehyde for 1 h, washed 3× with ddH2O and left to dry. 0.04% crystal violet (dissolved in ddH2O) was added to each well and the plates incubated for 1 h. The plates were again washed 3× with ddH2O and left to dry. Crystal violet was solubilised with 10% acetic acid (1 h at room temperature with rocking) and the optical density of each well measured at 570 nm with a plate reader (CLARIOstar, BMG Labtech, Germany).
(§2) (A) The non-tumorigenic controls PNT1A and BPH1, and prostate cancer cell lines LNCaP, C42, C42B, 22RV1, DU145 and PC3 were seeded 24 h before treatment with a dose range of the thieno[2,3-b]pyridine compounds (DJ97, DJ144, DJ145, DJ154 and DJ160). After 72 h of treatment, cells were fixed, stained with crystal violet and absorbance measured using a spectrophotometer microplate reader (FLUOstar Omega) at 490 nm. Mean ± SE of three independent repeats (six replicates for each concentration per experiment). (B) Western blotting was performed on lysates from the different cell lines and membranes probed with antibodies specific for PLCγ1, PLCγ2, AR and ⍺-tubulin. (C) PC3 cells were seeded in 10 cm plates and treated with a dose range of DJ160 for 24 h. Cells were collected and PLC activity measured, and enzymatic activity calculated. Mean of 3 repeats ± SD. TEXT PRINTED IN THE PICTURE: (C) DJ160: PLC activity (mol/min): 0.19 ± 0.005 (DJ160 (μM): 0); PLC activity (mol/min): 0.19 ± 0.005 (DJ160 (μM): 0.01); PLC activity (mol/min): 0.17 ± 0.005 (DJ160 (μM): 0.1); PLC activity (mol/min): 0.23 ± 0.004 (DJ160 (μM): 1); PLC activity (mol/min): 0.22 ± 0.010 (DJ160 (μM): 10)

The next assay concerns LNCaP. Briefly: Crystal violet proliferation assay, LNCaP. The assay is classed as cell-based. The note with it: AR positive, 72 h treatment, mean. The method, then:
as §1, §2

The next assay deals with DU145. Briefly: Crystal violet proliferation assay, DU145. It counts as cell-based. To be noted: Homo sapiens, DU-145; DU145, AR negative; 72 h treatment; mean. The procedure: as §1, §2
In the next assay the test system is PC3. Briefly: Crystal violet proliferation assay, PC3. It counts as cell-based. To be noted: PC3, AR negative, 72 h treatment, mean. The method, then: as §1, §2
The subject of the next assay is C42. Briefly: Crystal violet proliferation assay, C42. The assay is classed as cell-based. To be noted: C42, AR positive, 72 h treatment, mean. The method, then: as §1, §2
The next assay deals with 22RV1. The assay can be described thus: Crystal violet proliferation assay, 22RV1. The assay is classed as cell-based. To be noted: Homo sapiens; 22RV1, AR positive; 72 h treatment; mean. The method, then:
as §1, §2

The subject of a further assay is PNT1A. Briefly: Crystal violet proliferation assay, PNT1A. The assay is classed as cell-based. To be noted: Homo sapiens, non-tumorigenic, 72 h treatment, mean. The method, then: as §1, §2
The subject of the next assay is C42B. Briefly: Crystal violet proliferation assay, C42B. It counts as cell-based. The note with it: AR positive, 72 h treatment, mean. The method, then: as §1, §2
Assay [1] concerns cultured human prostate tumours. Briefly: Patient-derived tumour explants, immunohistochemistry of cleaved caspase 3. The note with it: explants of four patients, no/minimal apoptosis in patients 1 and 2. It counts as cell-based. The method, then: (§3) Explant experiments were undertaken using published methodology ([Centenera et al. 2018]). Biopsy tissue from prostate cancer patients was immediately placed in ice-cold medium straight from surgery. In the lab, tissue was dissected and seeded onto a sponge (SSP101010-32, Surgispon, Anser Medical) in 24-well plates. The explants were treated with compound 160 (100 nM) or the antiandrogen enzalutamide (10 μM) and incubated at 37°C for 48 h.
The explants were formalin fixed and wax embedded. Immunohistochemistry was performed to investigate the expression of cleaved caspase 3 (Cell Signalling 9661S (1/200)) as a marker of apoptosis. Protein expression was detected using the REAL EnVision Detection System (Peroxidase/DAB, K500711-2, DAKO).
Figure 7 Thieno[2,3-b]pyridine DJ160 inhibits activity in cultured human prostate tumours. Tumours were dissected into 1 mm^3 pieces then treated with the drugs (100 nM DJ160 and 10 μM enzalutamide (ENZA)) or vehicle control (DMSO, VC) and incubated for 48 h. (A) RNA was extracted and qPCR was performed to quantify the expression of PCNA, used as a marker of proliferation. (B) Samples were formalin-fixed and immunohistochemistry performed for cleaved caspase 3 and the number of cells per field counted. Example images for patient 3 are provided (20× magnification).

The test system of assay [2] is PC3 cells. Briefly: Fluorescent imaging: multinucleation and cell size. To be noted: 1 μM, 24 h, no multinucleation without inhibitors. It counts as cell-based. The procedure: Cells were seeded on glass coverslips and incubated overnight before treatment with the compounds. Cells were incubated for 24 h with the thieno[2,3-b]pyridines and fixed with 2% paraformaldehyde for 15 min at RT. Cells were washed 3 times with PBS and 0.1% Triton X-100 in PBS added for 10 min at RT. The washes were repeated and cells blocked with 1% BSA in 0.5% Tween for 30 min. Primary antibody (α-alpha-tubulin, clone B-5-1-2, Sigma Aldrich, USA) was diluted in the block buffer, added to the cells and incubated for 1 h. The cells were washed 3 times with PBS containing 0.5% Tween and secondary antibody applied (anti-mouse Alexa Fluor 568, Abcam, UK). […] To calculate the percentage of cells with multinucleation, ten random fields of view were imaged per slide using low magnification (10×) and the number of cells with more than 1 nucleus counted. Alterations in cell size were quantified using Fiji ([Schindelin et al. 2012]).
Figure 5 The thieno[2,3-b]pyridine compounds promote multinucleation and lead to an increase in cell size. […] Cells were PI stained and DNA content was measured using flow cytometry. […] Confocal microscopy was performed and five random images were taken for each treatment to quantify (C) percentage multinucleation and (D) relative cell size. […]

In assay [3] the test system is PC3 cells. The assay can be described thus: Cell cycle analysis (PI staining, flow cytometry). The assay is classed as cell-based. The note with it: 1 μM, 24 h. The method, then: Cells were seeded in 12-well plates, incubated overnight and treated with the inhibitors. The cells were incubated for 72 h before harvesting. Cells were pelleted (200 g, 5 min) and washed with PBS. The wash was removed and cells fixed with 70% EtOH, added dropwise with agitation. The cells were incubated at 4°C overnight, pelleted, washed with PBS and resuspended in PBS containing PI and RNase A, as previously described ([Brooke et al. 2011]). The percentage of cells in each phase of the cell cycle was subsequently quantified using an Accuri C6 Flow Cytometer (BD Biosciences, USA).
Figure 3 The thieno[2,3-b]pyridine compounds promote G2/M cell cycle arrest in PC3 cells. PC3 cells were seeded at 30% confluence for 48 h and treated with 1 μM of the compounds (97, 144, 145, 154 and 160) or DMSO for (A) 24, (B) 48 and (C) 72 h. Cells were PI stained and DNA content measured using flow cytometry. The percentage of cells in each phase was calculated and representative histograms generated using the ACCURI C6 software (BD Biosciences). Data are the mean of three independent repeats.
(In general: In flow cytometry, cells or beads pass a laser one at a time.)

In the next assay the test system is PLC. The assay can be described thus: PLC activity assay in treated PC3 cells. It counts as cell-based. To be noted: 24 h; for PLC activity: mean of 3 repeats ± SD, 0 μM control 0.19 ± 0.005. The procedure:
PC3 cells were grown in 10 cm dishes and treated with different concentrations of DJ160 for 24 h. Cells were collected and enzymatic activity quantified using a PLC Activity Assay Kit (Sigma Aldrich), following the manufacturer’s instructions.
as §2

In a further assay the test system is breast cancer cell lines. The note with it: across various breast cancer cell lines; cited from earlier work.
For assay [4], the system named is cultured human prostate tumours. The assay can be described thus: Patient-derived tumour explants, qPCR of PCNA (proliferation marker). To be noted: explants of four patients, 100 nM DJ160, 48 h. The assay is classed as cell-based. The procedure:
as §3
Explants were snap frozen until RNA was extracted using a Monarch RNA extraction kit (NEB), following disruption of frozen tissue utilising mechanical disruption and enzymatic digestion with proteinase K. Then, 2 μg of RNA was reverse transcribed using Precision Nanoscript2 RT Kit (Primer Design, UK). Changes in gene expression were measured using SYBR Green Fast Master Mix (Life Technologies, USA) and QuantStudio 7 Flex Real-Time PCR System (Applied Biosystems, USA). […]
Figure 7 Thieno[2,3-b]pyridine DJ160 inhibits activity in cultured human prostate tumours. […] (A) RNA was extracted and qPCR was performed to quantify the expression of PCNA, used as a marker of proliferation. (B) Samples were formalin-fixed and immunohistochemistry performed for cleaved caspase 3 and the number of cells per field counted. […]
For orientation: Real-time PCR tracks product formation cycle by cycle.

Bounds are passed on as bounds.

The term IC50 denotes the point on the concentration scale where inhibition reaches its midpoint. As for `Nc1c(C(=O)Nc2cccc(Br)c2)sc2nc3c(cc12)C(=O)CCC3` [DJ145], the “IC50 (nM)” value with BPH1 is “μM range”. Moreover, the half-maximal inhibitory concentration (IC50) in the assay with BPH1 is 4360 nM; in the assay with LNCaP (Homo sapiens, 72 h), 268 nM; in the assay on DU145, 1960 nM; with PC3 (Homo sapiens, 72 h), 673 nM; with C42 (C4-2, 72 h), 468 nM; in the assay with 22RV1 it was 499 nM. The IC50 in the assay on PNT1A came out at 708 nM; in the assay with C42B, 230 nM.

In the case of `CNC(=O)c1ccc(N2C(=S)N(c3ccc(C#N)c(C(F)(F)F)c3)C(=O)C2(C)C)cc1F` [enzalutamide, reference compound], the “cleaved caspase 3-positive cells (apoptosis)” value in assay [1] (10 μM enzalutamide, 48 h) was “increase in the percentage of cleaved caspase-positive cells in patient samples 3 and 4”.

For the compound `Nc1c(C(=O)Nc2cccc(Cl)c2)sc2nc3c(cc12)CCCC3` [DJ154], the half-inhibitory concentration (IC50) came to 806 nM with BPH1; 452 nM with LNCaP (Homo sapiens, 72 h); 660 nM in the assay with DU145; 723 nM with PC3 (Homo sapiens, 72 h); 246 nM in the assay with C42 (C4-2, 72 h); 521 nM in the assay with 22RV1. Besides, the concentration for half-maximal inhibition (IC50) turned out to be 902 nM in the assay with PNT1A and 512 nM in the assay on C42B.

With `Nc1c(C(=O)Nc2cccc(Cl)c2)sc2nc3c(cc12)C(=O)CCC3` [DJ97], the “IC50 (nM)” value in the assay with BPH1 is “μM range”. In addition, the concentration for half-maximal inhibition (IC50) in the assay with BPH1 worked out at 3550 nM; in the assay with LNCaP (Homo sapiens, 72 h), 482 nM; in the assay with DU145, 1400 nM; with PC3 (Homo sapiens, 72 h), 573 nM; with C42 (C4-2, 72 h), 334 nM; in the assay with 22RV1, 306 nM. Besides, the concentration for half-maximal inhibition (IC50) was 324 nM in the assay with PNT1A and 333 nM in the assay with C42B.

On to `Cc1c(Cl)cccc1NC(=O)c1sc2nc3c(cc2c1N)C(=O)CCC3` [DJ160], for which the 50% inhibitory concentration (IC50) with BPH1 is 151 nM; in the assay with LNCaP, 44.9 nM; with LNCaP (Homo sapiens, 72 h), below 50 nM; with DU145 it was 83.9 nM; in the assay with PC3 (Homo sapiens, 72 h), below 50 nM; with PC3, 46.5 nM. The IC50 with C42 (C4-2, 72 h) was below 50 nM; in the assay with C42, 29 nM; in the assay on 22RV1 it was 100 nM; with PNT1A, 82.6 nM; in the assay with C42B, 54 nM; in the assay on breast cancer cell lines it was above 100 nM. In the assay with PC3 cells [2], the “percentage of cells with multinucleation” value is “more than 30%”. In the assay with PC3 cells [3], the “G2/M cell cycle arrest” value was “most pronounced effect”. The “PLC activity” value in the assay with PLC (DJ160 0.01 μM) is listed as 0.19 ± 0.005 mol/min; in the assay with PLC (DJ160 0.1 μM) it was 0.17 ± 0.005 mol/min; with PLC (DJ160 1 μM), 0.23 ± 0.004 mol/min; with PLC (DJ160 10 μM) it was 0.22 ± 0.010 mol/min. For the same compound, the “effect upon pan-PLC activity” value with PLC (dose range) is recorded as “little effect”. In assay [1] (100 nM DJ160, 48 h), the “cleaved caspase 3-positive cells (apoptosis)” value is “increase in the percentage of cleaved caspase-positive cells in patient samples 3 and 4”. Moreover, the “reduction of PCNA expression compared to untreated samples” value in [4] is recorded as “approximately 80%”.

Turning to `COc1cccc(NC(=O)c2sc3nc4c(cc3c2N)C(=O)CCC4)c1` [DJ144], the half-inhibitory concentration (IC50) in the assay with BPH1 was determined as 443 nM; in the assay with LNCaP (Homo sapiens, 72 h), 59.4 nM; in the assay on DU145 it was 271 nM; in the assay with PC3 (Homo sapiens, 72 h) it was 214 nM; in the assay on C42 (C4-2, 72 h), 187 nM; with 22RV1, 185 nM. In addition, the half-maximal inhibitory concentration (IC50) in the assay on PNT1A came to 238 nM; with C42B it was 150 nM. Besides, the “G2/M cell cycle arrest” value in the assay with PC3 cells [3] is “most pronounced effect”.

Values taken from PMC12243099, “Thieno[2,3-b]pyridine compounds potently inhibit prostate cancer growth and motility” (Endocrine Oncology, 2025).
